# Measurements as given in US9662322B2 (TEVA PHARMACEUTICAL INDUSTRIES, LTD., priority 2014, dated 2017).
# System: subjects with relapsing remitting multiple sclerosis (RRMS)
# Test: ALLEGRO Phase III trial: patient-reported fatigue and health status (MFIS, SF-36, EQ5D)
# Assay type: in vivo, human
# Conditions: over 24 months
# Method: The following assessments were performed at specified time points: • 1. Vital signs were measured at each study visit. • 2. A physical examination is performed at months −1 (screening), 0 (baseline) 1, 3, 6, 12, 18 and 24 (termination/early discontinuation core study). In case of the 6 months extended study, additional examination was performed at month 30 (termination/early discontinuation of extended study). • 3. The following safety clinical laboratory tests were performed: • a. Complete blood count (CBC) with differential—at all scheduled visits. A reticulocyte count was added to the CBC at months 0 (baseline) and 24/30 (termination/early discontinuation). • b. […] Adverse Events (AEs) are monitored throughout the study. • 9. Concomitant medications are monitored throughout the study. • 10. […] MS functional Composite (MSFC) was assessed at months −1 (screening) (three practices for training purposes only), at month 0 (baseline), 6, 12, 18 and 24 (termination/early discontinuation). […] Subject-reported fatigue was assessed by the Modified Fatigue Impact Scale (MFIS) at months 0, 6, 12, 18, and 24 (termination/early discontinuation). […] The general health status was assessed by the EuroQoL (EQ5D) questionnaire at month 0 (baseline) and month 24 (termination/early discontinuation of the study). […]
smiles,measurement,value
"CCN(C(=O)c1c(O)c2c(Cl)cccc2n(C)c1=O)c1ccccc1 [Laquinimod, laquinimod]",SF-36 physical component summary (PCS) course,remained stable
